Measured values: patent publication US6987004B1, “Genes integrating signal transduction pathways” (Massachusetts Institute of Technology, priority 1998, dated 2006)

Experiments:
Type in all cases: cell-based
Rap1A = test: GTP-bound Rap1A in 293T cells in the absence of cAMP-GEFs; conditions: treatment alone
Source text: (§1) Forskolin/IBMX treatment given alone had no effect.
cAMP-dependent activation of Rap1 has previously been ascribed to the phosphorylation of Rap1A by PKA, which raises its affinity to smgGDS, a GEF with broad substrate specificity. […] The activation of Rap1A induced by cAMP-GEFI and II is independent of the PKA pathway.

cAMP-GEFI = molecular target: T1, cAMP-GEFI (Rattus norvegicus, UniProt Q9Z1C8); test: Ratio of GTP to GDP bound to Rap1A in 293T cells expressing cAMP-GEFI; parameters: expressed in transfected cells; host or cells: 293T cells
T1 sequence (Q9Z1C8 43-926 limits assumed): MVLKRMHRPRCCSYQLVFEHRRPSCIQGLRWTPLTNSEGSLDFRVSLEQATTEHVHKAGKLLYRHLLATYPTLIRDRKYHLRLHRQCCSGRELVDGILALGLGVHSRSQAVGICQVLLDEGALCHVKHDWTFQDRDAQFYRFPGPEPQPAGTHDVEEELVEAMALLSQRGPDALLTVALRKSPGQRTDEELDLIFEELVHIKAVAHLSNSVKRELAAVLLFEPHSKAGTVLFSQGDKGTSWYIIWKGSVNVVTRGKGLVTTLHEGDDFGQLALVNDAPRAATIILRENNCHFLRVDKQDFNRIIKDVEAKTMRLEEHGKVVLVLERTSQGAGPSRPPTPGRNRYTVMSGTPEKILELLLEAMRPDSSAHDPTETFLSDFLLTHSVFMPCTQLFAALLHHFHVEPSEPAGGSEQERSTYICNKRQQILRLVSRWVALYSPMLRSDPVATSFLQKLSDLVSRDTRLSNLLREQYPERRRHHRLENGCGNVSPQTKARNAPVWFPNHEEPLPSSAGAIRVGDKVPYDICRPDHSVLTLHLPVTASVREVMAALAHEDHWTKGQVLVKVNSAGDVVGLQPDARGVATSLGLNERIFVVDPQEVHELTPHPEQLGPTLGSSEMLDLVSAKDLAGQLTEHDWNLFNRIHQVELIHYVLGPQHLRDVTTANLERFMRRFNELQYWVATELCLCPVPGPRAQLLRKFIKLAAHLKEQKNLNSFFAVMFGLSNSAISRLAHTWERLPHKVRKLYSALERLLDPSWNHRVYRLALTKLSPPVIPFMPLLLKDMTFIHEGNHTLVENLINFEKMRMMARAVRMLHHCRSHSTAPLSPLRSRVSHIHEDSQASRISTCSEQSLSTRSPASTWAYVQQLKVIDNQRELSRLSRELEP
Description: (§2) To determine the effect of CalDAG-GEFI on the Erk/MAP kinase cascade, Elk1 activation was measured in 293T cells transfected with CalDAG-GEFI or constitutively active H-Ras (RasV12), or both. 293T cells were transfected by SuperFect (Qiagen) as described in Gotoh, supra, with expression vectors for GST-tagged Ras family proteins and with those for various GEFs. Cells were labeled 24 hours after transfection with ^32Pi for 2 hr. In some experiments, cells were stimulated with either 10 μM A23187 or 1 μM phorbol-12-myristate-13-acetate (TPA) for 3 min. GST-tagged Ras family proteins were collected from cell lysates with glutathione Sepharose. Guanine nucleotides bound to Ras family proteins were separated by thin layer chromatography (TLC). Activation of Elk1 was examined by the PathDetect Elk1 transreporting system (Stratagene). 293T cells were transfected with pFR-Luc and pFA-Elk1 with various expression vectors, and light output was detected and analyzed by the use of LAS1000 film.
as §1
Thus, cAMP-GEFI has a direct effect on Rap1A rather than secondary effects mediated by other Ras-superfamily GEFs.

cAMP-GEFII = molecular target: T2, cAMP-GEFII (Homo sapiens, UniProt Q8WZA2); test: Ratio of GTP to GDP bound to Rap1A in 293T cells expressing cAMP-GEFII
T2 construct: expressed in transfected cells; host or cells: 293T cells
T2 sequence (Q8WZA2 whole entry): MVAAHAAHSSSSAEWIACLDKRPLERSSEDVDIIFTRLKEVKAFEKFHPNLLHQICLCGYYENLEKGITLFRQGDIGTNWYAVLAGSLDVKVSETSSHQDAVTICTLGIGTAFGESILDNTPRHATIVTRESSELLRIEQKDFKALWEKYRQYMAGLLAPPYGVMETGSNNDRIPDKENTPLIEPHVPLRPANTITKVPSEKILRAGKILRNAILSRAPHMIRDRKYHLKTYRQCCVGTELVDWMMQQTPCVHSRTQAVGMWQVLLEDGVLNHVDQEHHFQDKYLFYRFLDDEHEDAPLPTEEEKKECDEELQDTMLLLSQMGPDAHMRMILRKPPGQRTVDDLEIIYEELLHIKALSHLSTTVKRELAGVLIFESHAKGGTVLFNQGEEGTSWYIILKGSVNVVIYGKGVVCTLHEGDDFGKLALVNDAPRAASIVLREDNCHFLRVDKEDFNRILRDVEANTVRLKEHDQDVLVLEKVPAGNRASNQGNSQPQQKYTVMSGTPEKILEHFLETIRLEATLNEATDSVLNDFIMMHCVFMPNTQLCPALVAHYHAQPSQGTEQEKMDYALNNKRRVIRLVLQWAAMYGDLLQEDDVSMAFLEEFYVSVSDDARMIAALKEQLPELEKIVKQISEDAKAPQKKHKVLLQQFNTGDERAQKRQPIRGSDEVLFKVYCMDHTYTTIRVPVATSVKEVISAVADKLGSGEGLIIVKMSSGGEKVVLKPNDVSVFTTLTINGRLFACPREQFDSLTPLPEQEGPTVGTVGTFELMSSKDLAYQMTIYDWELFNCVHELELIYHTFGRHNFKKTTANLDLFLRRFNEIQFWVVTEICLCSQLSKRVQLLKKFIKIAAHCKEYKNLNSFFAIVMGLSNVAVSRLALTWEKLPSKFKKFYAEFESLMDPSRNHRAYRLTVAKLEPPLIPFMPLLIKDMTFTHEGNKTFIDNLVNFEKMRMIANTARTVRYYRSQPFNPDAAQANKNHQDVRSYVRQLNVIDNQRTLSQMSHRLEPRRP
Description: as §2, §1

Structure (SMILES)	Increase of GTP-bound Rap1A without cAMP-GEF (Rap1A)	Activation of Rap1A (cAMP-GEFI; cAMP-GEFI transfectants)	Rap1A activation by cAMP-GEFII in the presence of the PKA inhibitor (cAMP-GEFII)	Rap1A activation by cAMP-GEFI in the presence of the PKA inhibitor (cAMP-GEFI; 293T cells)
Nc1ncnc2c1ncn2[C@@H]1O[C@@H]2COP(O)(=S)O[C@H]2[C@H]1O (stereo partly shown) [Sp-cAMPS]	not detected	activated Rap1A at levels similar to those induced by forskolin/IBMX	–	–
O=S(=O)(NCCNC/C=C/c1ccc(Br)cc1)c1cccc2cnccc12 [H-89]	–	–	could still activate Rap1A	could still activate Rap1A
